The record followed here is patent US20110046170A1, “NOVEL PYRIMIDINE-PYRIDINE DERIVATIVES” (priority 2008, published 2011).

The test has as its target human S1P1 receptor (Homo sapiens, UniProt P21453). Put plainly: GTPγS assay to determine EC50 values. The format is biochemical. The settings on record: 35S-GTPγS binding, membrane preparations of CHO cells expressing recombinant human S1P1 receptor. Here is the method: GTPγS Assay to Determine EC50 Values
GTPγS binding assays are performed in 96 well microtiter plates (Nunc, 442587) in a final volume of 200 μl, using membrane preparations of CHO cells expressing recombinant human S1P1 receptor. Assay conditions are 20 mM Hepes (Fluka, 54461), 100 mM NaCl (Fluka, 71378), 5 mM MgCl2 (Fluka, 63064), 0.1% BSA (Calbiochem, 126609), 1 μM GDP (Sigma, G-7127), 2.5% DMSO (Fluka, 41644), 50 pM ^35S-GTPγS (Amersham Biosciences, SJ1320). The pH is 7.4. Test compounds are dissolved and diluted in 100% DMSO and pre-incubated at rt for 30 min in 150 μl of the above assay buffer, in the absence of ^35S-GTPγS. After addition of 50 μl of ^35S-GTPγS, the assay is incubated for 1 h at rt. The assay is terminated by transfer of the reaction mixture to a Multiscreen plate (Millipore, MAHFC1H60) using a cell harvester from Packard Biosciences, and the plates are washed with ice-cold 10 mM Na2HPO4/NaH2PO4 (70%/30%), dried, sealed at the bottom and, after addition of 25 μl MicroScint20 (Packard Biosciences, order# 6013621), sealed on the top. Membrane-bound ^35S-GTPγS is measured with a TopCount from Packard Biosciences.
EC50 is the concentration of agonist inducing 50% of the maximal specific ^35S-GTPγS binding. Specific binding is determined by subtracting non-specific binding from maximal binding. Maximal binding is the amount of cpm bound to the Multiscreen plate in the presence of 10 μM of S1P. Non-specific binding is the amount of binding in the absence of an agonist in the assay.
For orientation: GTPγS is a poorly hydrolysed GTP analogue; its binding reports G protein activation.

By pEC50 is commonly meant −log10 of the EC50, conventionally taken in molar units.

pEC50: −log10 of the molar value.

human S1P1 receptor, sequence (P21453 whole entry): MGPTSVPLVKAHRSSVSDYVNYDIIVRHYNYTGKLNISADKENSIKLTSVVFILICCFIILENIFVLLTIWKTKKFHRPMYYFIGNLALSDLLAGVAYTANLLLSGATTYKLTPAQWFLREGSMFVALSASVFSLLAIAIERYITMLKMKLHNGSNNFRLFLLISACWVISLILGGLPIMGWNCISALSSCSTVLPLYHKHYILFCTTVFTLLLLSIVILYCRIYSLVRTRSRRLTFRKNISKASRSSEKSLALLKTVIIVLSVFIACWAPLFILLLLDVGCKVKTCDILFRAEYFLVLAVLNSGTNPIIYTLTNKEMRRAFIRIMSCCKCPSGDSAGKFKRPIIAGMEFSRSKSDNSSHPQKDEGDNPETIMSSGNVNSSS

Regarding `CCCNc1nc(C)cc(-c2nc(-c3cc(C)nc(OC)c3)no2)n1` [Example 119], under “agonistic activity”, the pEC50 was 7.52. On to `CCN(c1nc(C)cc(-c2noc(-c3cc(C)cc(CC(C)C)n3)n2)n1)C(C)C` [Example 250], for which the pEC50 is less than 5.00. On to `Cc1cc(-c2nc(-c3cc(C)nc(N(C)C(C)C)n3)no2)cc(N(C)C)n1` [Example 196], for which the pEC50 (agonistic activity) was 6.62. Regarding `CCCNc1nc(C)cc(-c2noc(-c3cc(C)cc(CC(C)C)n3)n2)n1` [Example 240], the pEC50 was less than 5.00. Turning to `COc1nc(C)cc(-c2nc(-c3cc(C)nc(C)c3)no2)n1` [Example 58], the pEC50 was less than 5.00. Take `COc1nc(C)cc(-c2nc(-c3cc(C)nc(C(C)C)c3)no2)n1` [Example 60]: where the note is “agonistic activity”, the pEC50 is 6.90.

With `CNc1nc(C)cc(-c2noc(-c3cc(C)cc(CC(C)C)n3)n2)n1` [Example 238], the negative-log EC50 (pEC50) (agonistic activity) is 6.40. On the same count and under the same terms, for `CCc1cc(-c2noc(-c3cc(C)nc(NC4CC4)n3)n2)cc(C)n1` [Example 116] the value was 8.68; for `CCc1cc(-c2noc(-c3cc(C)nc(N4CCCC4)n3)n2)cc(C)n1` [Example 118], 6.73; for `CCNc1nc(C)cc(-c2nc(-c3cc(C)nc(Cl)c3)no2)n1` [Example 12], 7.57. `Cc1cc(CC(C)C)nc(-c2nc(-c3cc(C)nc(NCC(C)C)n3)no2)c1` [Example 242]: the pEC50 was less than 5.00. As for `CCc1cc(-c2nc(-c3cc(C)nc(OC)n3)no2)cnc1N(C)C(C)C` [Example 233], the pEC50 (agonistic activity) was 6.72. On the same count and under the same terms, for `COc1nc(C)cc(-c2noc(-c3cc(C)nc(CC(C)C)c3)n2)n1` [Example 94] the value was 7.57; for `CCc1cc(-c2nc(-c3cc(C)nc(NC)n3)no2)cnc1N(C)C(C)C` [Example 220], 6.64. Still for that read-out and setting: for `Cc1cc(CC(C)C)nc(-c2nc(-c3cc(C)nc(N(C)C)n3)no2)c1` [Example 243] the value was 6.50. Still for that read-out and setting: for `CCc1cc(-c2nc(-c3cc(C)nc(N(C)C(C)C)n3)no2)cnc1N(C)C(C)C` [Example 228] the value was 5.49.

As for `CCc1cc(-c2nc(-c3cc(C)nc(C)c3)no2)nc(NC(C)C)n1` [Example 147], where the note is “agonistic activity”, the pEC50 is 9.15. Still for that read-out and setting: the same measure for `Cc1cc(-c2noc(-c3cc(C)nc(N(C)C(C)C)n3)n2)cc(C)n1` [Example 109]: 8.89; for `CCCNc1nc(C)cc(-c2noc(-c3cnc(CC(C)C)c(C)c3)n2)n1` [Example 206]: 5.24. On to `CCCN(C)c1nc(C)cc(-c2noc(-c3cnc(N(C)C(C)C)c(CC)c3)n2)n1` [Example 227], for which the pEC50 was less than 5.00.

`CCc1cc(-c2nc(-c3cc(C)nc(N(CC)C(C)C)n3)no2)cnc1N(C)C(C)C` [Example 232]: the pEC50 is less than 5.00. Consider `CCc1cc(-c2nc(-c3cc(C)nc(C)c3)no2)nc(N(C)C)n1` [Example 149], for which the pEC50 (agonistic activity) is 7.20. `CCc1cc(-c2nc(-c3cc(C)nc(NCC(C)C)n3)no2)cnc1N(C)C(C)C` [Example 224]: the pEC50 is less than 5.00. Regarding `CCCN(CC)c1nc(C)cc(-c2noc(-c3cc(C)nc(C)c3)n2)n1` [Example 178], under “agonistic activity”, the pEC50 was 7.96. Still for that read-out and setting: for `CCc1cc(-c2nc(-c3cc(C)nc(NC(C)C)n3)no2)cnc1N(C)C(C)C` [Example 223] the value was 5.38; for `CCN(c1nc(C)cc(-c2nc(-c3cc(C)nc(OC)c3)no2)n1)C(C)C` [Example 126], 7.41. Turning to `Cc1cc(CC(C)C)nc(-c2nc(-c3cc(C)nc(OC(C)C)n3)no2)c1` [Example 254], the pEC50 is less than 5.00. For `Cc1cc(-c2noc(-c3cnc(OC(C)C)c(C)c3)n2)nc(NC(C)C)n1` [Example 214], under “agonistic activity”, the pEC50 is 6.14. The same measure, in the same setting: for `CCCN(C)c1nc(C)cc(-c2noc(-c3cc(C)nc(C)c3)n2)n1` [Example 174] the value was 7.47; for `Cc1cc(-c2nnc(-c3cc(C)nc(NC(C)C)n3)o2)cc(C)n1` [Example 100], 6.89. Same read-out and setting: for `COc1nc(C)cc(-c2noc(-c3cc(C)cc(CC(C)C)n3)n2)n1` [Example 251] the value was 6.70.
